Results: paper PMC9697446 (International Journal of Molecular Sciences, 2022)

How the values were obtained:
AChE = AChE (Homo sapiens, UniProt P22303); assay: Kinetic analysis of AChE inhibition, steady-state inhibition constants; format: biochemical; conditions: for AChE inhibition constant αKi (noncompetitive component) / Ki: Lineweaver–Burk analysis; for Ki: read-out: AChE inhibition constant Ki (competitive component); for Mechanism of AChE inhibition: Lineweaver–Burk double reciprocal plot
AChE, sequence (P22303 32-588 isoform P22303-2): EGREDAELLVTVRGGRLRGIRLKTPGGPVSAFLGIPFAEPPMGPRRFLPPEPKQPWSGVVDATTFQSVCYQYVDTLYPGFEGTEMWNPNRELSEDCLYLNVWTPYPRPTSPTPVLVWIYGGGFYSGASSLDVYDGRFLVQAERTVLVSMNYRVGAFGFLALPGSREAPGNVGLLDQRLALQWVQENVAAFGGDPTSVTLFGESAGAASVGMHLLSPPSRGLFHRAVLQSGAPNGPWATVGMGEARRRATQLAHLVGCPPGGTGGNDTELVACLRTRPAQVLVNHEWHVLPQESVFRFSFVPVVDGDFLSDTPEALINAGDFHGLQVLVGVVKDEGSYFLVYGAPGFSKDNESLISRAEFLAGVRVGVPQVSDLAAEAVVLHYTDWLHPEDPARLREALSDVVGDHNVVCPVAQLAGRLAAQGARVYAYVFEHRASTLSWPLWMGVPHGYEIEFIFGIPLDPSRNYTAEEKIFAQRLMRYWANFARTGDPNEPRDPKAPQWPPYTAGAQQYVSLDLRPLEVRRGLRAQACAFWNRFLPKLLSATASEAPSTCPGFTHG
Method: . The results were analyzed using the Lineweaver–Burk double reciprocal plot, and the graphical analysis of the kinetic data is shown in Figure 1. […]. To elucidate the inhibition mechanisms for the active compounds, the residual activity of AChE was determined in the presence of three increasing concentrations of the test compounds and six decreasing concentrations of the substrates. The test compounds were preincubated with the enzyme at 25 °C for 5 min, followed by the addition of the substrates. Parallel controls were made for an assay of the rate of hydrolysis of the same concentrations of substrates in the solutions with no inhibitor. The kinetic parameters of substrate hydrolysis were determined. Measurements were performed with a FLUOStar Optima microplate reader. Each experiment was performed in triplicate.

[1] = target: T1, NMDA receptor intrachannel site ([3H]MK-801) (Rattus norvegicus, UniProt P35439); assay: Radioligand binding, [3H]MK-801 site of the NMDA receptor
T1 construct: from tissue; host or cells: rat brain membranes
Method: (§1) The experiments were carried out using a rat brain membrane fraction.
(§2) The effect of test compounds on the radioligand binding to NMDA receptors was determined as previously described. Two radioactive ligands were used: [^3H] […] A pellet of rat brain membrane specimen was resuspended in a working buffer (5 mM HEPES/4.5 mM Tris buffer, pH 7.6) in a ratio of 1:5 and stored in liquid nitrogen. The reaction mixture (with a final volume of 0.5 mL) contained 200 µL of the working buffer, 50 µL of 50 nM radioligand solution, and 250 µL of the membrane suspension. Nonspecific binding was determined in the presence of 50 µL of […] of unlabeled ligand.
(§3) For the binding study, the reaction mixture was incubated at room temperature for 2 h. After incubation, the samples were filtered through GF/B glass-fiber filters (Whatman), washed with the working buffer, dried, and transferred to scintillation vials, and then 5 mL of scintillation fluid was added to the vials containing 4 g of diphenyloxazole (PPO), 0.2 g of diphenyloxazoil benzene (POPOP), and 1 L of toluene.
(§4) The effect of the test compounds on the binding of [^3H]

[2] = target: T2, NMDA receptor peripheral site ([3H]ifenprodil) (Rattus norvegicus, UniProt P35439+Q00960); assay: Radioligand binding, [3H]ifenprodil site of the NMDA receptor
T2 construct: from tissue; host or cells: rat brain membranes
T2 sequence (Q00960 27-1482, other chains not shown): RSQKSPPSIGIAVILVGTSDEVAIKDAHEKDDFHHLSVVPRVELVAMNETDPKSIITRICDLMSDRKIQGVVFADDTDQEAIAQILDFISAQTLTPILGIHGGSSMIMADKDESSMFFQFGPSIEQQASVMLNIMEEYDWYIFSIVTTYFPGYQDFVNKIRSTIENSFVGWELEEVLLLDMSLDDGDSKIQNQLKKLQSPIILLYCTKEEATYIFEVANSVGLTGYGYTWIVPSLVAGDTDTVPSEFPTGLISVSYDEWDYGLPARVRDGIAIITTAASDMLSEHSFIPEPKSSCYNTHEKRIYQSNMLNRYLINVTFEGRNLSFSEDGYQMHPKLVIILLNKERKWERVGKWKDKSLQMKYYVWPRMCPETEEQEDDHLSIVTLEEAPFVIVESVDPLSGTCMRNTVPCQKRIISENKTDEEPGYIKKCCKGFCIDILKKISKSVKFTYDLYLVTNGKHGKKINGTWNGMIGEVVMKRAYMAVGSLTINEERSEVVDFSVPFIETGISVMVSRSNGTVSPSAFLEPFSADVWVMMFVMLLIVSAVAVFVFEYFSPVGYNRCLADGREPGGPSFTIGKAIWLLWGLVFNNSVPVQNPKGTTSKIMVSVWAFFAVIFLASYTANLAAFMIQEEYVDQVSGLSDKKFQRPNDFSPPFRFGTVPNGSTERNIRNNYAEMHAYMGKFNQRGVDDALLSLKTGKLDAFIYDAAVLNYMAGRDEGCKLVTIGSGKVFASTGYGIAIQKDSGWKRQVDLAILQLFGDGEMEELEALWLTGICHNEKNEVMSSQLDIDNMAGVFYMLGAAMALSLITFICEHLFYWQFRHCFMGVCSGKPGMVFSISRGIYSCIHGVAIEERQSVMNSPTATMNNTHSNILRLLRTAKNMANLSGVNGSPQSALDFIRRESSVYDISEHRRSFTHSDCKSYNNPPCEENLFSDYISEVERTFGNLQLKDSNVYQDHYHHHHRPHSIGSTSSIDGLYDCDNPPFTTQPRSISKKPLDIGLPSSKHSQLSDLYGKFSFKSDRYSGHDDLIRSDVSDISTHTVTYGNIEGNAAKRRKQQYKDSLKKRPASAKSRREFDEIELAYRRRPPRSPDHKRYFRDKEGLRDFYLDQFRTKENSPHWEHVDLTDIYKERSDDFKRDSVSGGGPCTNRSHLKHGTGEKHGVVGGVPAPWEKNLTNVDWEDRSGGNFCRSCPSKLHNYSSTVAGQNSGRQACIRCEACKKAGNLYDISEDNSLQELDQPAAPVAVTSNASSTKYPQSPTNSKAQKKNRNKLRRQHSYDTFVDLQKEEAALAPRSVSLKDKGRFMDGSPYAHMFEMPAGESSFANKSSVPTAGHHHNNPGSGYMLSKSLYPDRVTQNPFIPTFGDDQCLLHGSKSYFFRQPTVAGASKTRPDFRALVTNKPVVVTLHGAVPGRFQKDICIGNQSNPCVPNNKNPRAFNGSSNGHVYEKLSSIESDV
Method: as §1, §2, §3, §4

[3] = tested on: primary culture of rat cerebellar granule cells (CGC); assay: Ionomycin-induced toxicity in cerebellar granule cells, MTT assay; format: cell-based; conditions: ionomycin 3 µM
Method: (§5) This neurotoxicity model reflects the calcium stress involved with several types of insults, such as amyloid toxicity, excitotoxicity, and ischemic damage. The viability of the primary culture of rat cerebellar granule cells (CGC) and brain cortical neurons (BCN) was assessed by the MTT assay in the presence of various concentrations of compound 4i.
(§6) Cerebellar granule cells (CGC) and brain cortical neurons (BCN) were isolated from P-7 or P0-2 rat’s pups, respectively, using a previously described protocol. Once removed, cerebella or brain cortex were digested for 15 min in 0.025% type II trypsin (w/v) at 37 °C. Ice-cold DMEM containing 5% (w/v) fetal bovine serum was added to inactivate the trypsin. […] After 8-10 day in culture the cells were incubated with a test compound or an equal volume of the DMSO (<1% (v/v) of the whole volume of the medium under the layer of cells and 3 µM ionomycin for 24 h. The cell viability was then evaluated as the dehydrogenase activity with the 3-(4,5-dimethylthiazol-2-yl)-2,5-diphenyltetrazolium bromide (MTT) assay. The absorbance was measured at 570 nm using a Victor microplate reader (Perkin Elmer), and data were normalized with intact control assumed 100%.

[4] = tested on: rat brain cortical neurons (BCN); assay: Ionomycin-induced toxicity in brain cortical neurons, MTT assay; format: cell-based; conditions: ionomycin 1 µM
Method: as §5
Cerebellar granule cells (CGC) and brain cortical neurons (BCN) were isolated from P-7 or P0-2 rat’s pups, respectively, using a previously described protocol. Once removed, cerebella or brain cortex were digested for 15 min in 0.025% type II trypsin (w/v) at 37 °C. Ice-cold DMEM containing 5% (w/v) fetal bovine serum was added to inactivate the trypsin. The crude cell suspension was centrifuged, and the cell pellet was resuspended in Neurobasal with 2% (v/v) B27 supplemented with 15% (v/v) fetal bovine serum (FBS), 100 U/mL penicillin, and […] streptomycin. The cells were cultured in a humidified, 5% (v/v) CO2-controlled environment at 37 °C. […] The cell viability was then evaluated as the dehydrogenase activity with the 3-(4,5-dimethylthiazol-2-yl)-2,5-diphenyltetrazolium bromide (MTT) assay. The absorbance was measured at 570 nm using a Victor microplate reader (Perkin Elmer), and data were normalized with intact control assumed 100%.

[5] = tested on: rat cerebellar granule cells (CGC) and brain cortical neurons (BCN); assay: Viability of CGC and BCN with the compound alone, MTT assay; format: cell-based; conditions: various concentrations
Method: as §5, §6

[6] = tested on: isolated rat liver mitochondria; assay: Oxygen consumption rate of mitochondria (Seahorse flux analyzer); format: biochemical; conditions: nanomolar concentrations; complex I substrates (glutamate and malate) and in the presence of rotenone
Method: Meanwhile, compound 4i can stimulate respiration of isolated rat liver mitochondria, which was estimated using an XFe96 Seahorse extracellular flux analyzer (Figure 5).
Analysis was based on the fluorometric determination of O2 and H^+ levels with solid-state probes on a sensor cartridge. The oxygen consumption rate (OCR) was measured successively in the presence of RC substrates and then after the addition of ADP (phosphorylating respiration), ATP synthase F^o-subunit inhibitor oligomycin (proton leak), oxidative phosphorylation uncoupler FCCP (maximal respiration), and the corresponding inhibitors of respiration chain complexes (non-mitochondrial respiration) (Figure 5a).
The oxygen consumption was measured using a Seahorse XF96 flux analyzer on mitochondria respiring on glutamate (5 mM) and malate (5 mM), according the same protocol as with a correction to a 96-well instead of a 24-well plate. Respiration by rat liver mitochondria (5 µg/well) was sequentially measured in a coupled state with substrates of complex I (basal respiration); followed by phosphorylating respiration after the addition of ADP; non-phosphorylating or resting respiration induced with the addition of oligomycin; uncoupled respiration stimulated by the addition of FCCP; and finally, non-mitochondrial respiration after the addition of the inhibitor of complex I rotenone.

[7] = tested on: isolated rat liver mitochondria; assay: Mitochondrial membrane potential and calcium-induced depolarization (safranine O); format: biochemical; conditions: complex I inhibitor rotenone and a substrate of RC complex II
[8] = cited from earlier work

Compound | AChE inhibition constant αKi (noncompetitive component) (AChE) [µM] | Ki (AChE) [µM] | Mechanism of AChE inhibition (AChE) | IC50 [1] [µM] | IC50 [2] [µM] | Protection from ionomycin-induced toxicity, CGC [3] | Protection from ionomycin-induced toxicity, BCN [4] | Effect on formazan formation in the MTT assay (toxicity to cells) [5] | Phosphorylating respiration and maximal respiration (OCR) [6] | Effect on mitochondrial membrane potential at 1 μM, rotenone and complex II substrate [7] | Redox potential [8] [mV]
Cc1ccc2c(c1)c1c(n2CCC(=O)N2c3ccc(N(C)C)cc3Sc3cc(N(C)C)ccc32)CCCC1 [Compound 4c] | 5.83 ± 0.31 | 1.98 ± 0.17 | mixed type inhibition | – | – | – | – | – | – | – | –
CN(C)c1ccc2c(c1)Sc1cc(N(C)C)ccc1N2C(=O)CCn1c2c(c3cc(OC(F)(F)F)ccc31)CCCC2 [Compound 4h] | – | – | – | 116 ± 10.1 | 61.3 ± 6.5 | – | – | – | – | – | –
CC1CCc2c(c3cc(OC(F)(F)F)ccc3n2CCC(=O)N2c3ccc(N(C)C)cc3Sc3cc(N(C)C)ccc32)C1 (centres unmarked) [Compound 4i] | 3.19 ± 0.10 | 1.12 ± 0.05 | mixed type inhibition | 101 ± 9.2 | 10.4 ± 1.2 | statistically significant protection | statistically significant protection | did not affect formazan formation | statistically significant increase | – | –
CN(C)c1ccc2c(c1)Sc1cc(N(C)C)ccc1N2C(=O)CCn1c2c(c3ccccc31)CCCCCC2 [Compound 4m] | 4.03 ± 0.15 | 1.06 ± 0.04 | mixed type inhibition | – | – | – | – | – | – | induced mitochondrial depolarization | –
CN(C)c1ccc2nc3ccc(=[N+](C)C)cc-3sc2c1 [MB, Methylene blue, reference compound] | – | – | – | – | – | – | – | – | – | induced mitochondrial depolarization | 11
